Test results as given in patent US8962322B2, “Enhancers of induced pluripotent stem cell reprogramming” (City of Hope, priority 2012, dated 2015).

Assays:
[1] = system: human fibroblast cells (IMR90); assay: human iPSC derivation from 4F (OSKM)-transduced IMR90 fibroblasts; format: cell-based
Description: It has been shown that compound OAC1 (Oct4-activating compound I) and two of its structural analogs OAC2 and OAC3 can enhance reprogramming efficiency, when added to the reprogramming mixture along with the four transcription factors, Oct4, Sox2, Klf4, and c-Myc (OSKM), in mouse system. The OAC compounds were tested to determine if they can enhance reprogramming efficiency in human system. The reprogramming process was performed as described in the diagram (FIG. 14a). Briefly, human fibroblast cells (IMR90) were induced to reprogram into induced pluripotent stem cells (iPSCs) using the four reprogramming factors (4F), OSKM. The day when the cells were transduced with the four reprogramming factors was referred to as day 0. Cells were cultured in IMR90 media for six days. On day 6, the transduced cells were split and seeded onto feeders. On day 7, IMR90 culture media was changed to hESC culture media and started compound treatment. Compound treatment was lasted for one week. Cells were monitored for the appearance of human embryonic stem cell (ESC)-like colonies. On day 9, several small human ESC-like colonies appeared in both 4F+OAC1 and 4F+OAC2-treated cells, however, human ESC-like colonies were not observed in 4F+vehicle (4F)-treated cells until day 11. To determine the effect of OAC on the efficiency of human iPSC derivation, the number of human ESC-like colonies were counted under all three conditions at day 18. Both OAC 1 and its structural analog OAC2 increased the number of human ESC-like colonies more than two-fold (FIG. 14b, c). The human ESC-like colonies were picked from either 4F or 4F+OAC-treated cells and expanded under human ESC culture conditions. These cells were able to expand and stably produce human iPSC clones with characteristic human ESC-like morphology (FIG. 14d).

luciferase = luciferase (Photinus pyralis, UniProt P08659); conditions: read-out: EC50 of luciferase inhibition; at 40° C., loss of enzymatic activity as measurement; cited from earlier work
[2] = system: mouse embryonic fibroblasts (MEFs); assay: iPSC derivation from 4F (OSKM)-transduced MEFs in mouse ESC media; format: cell-based
Description: The generation of iPSCs is a gradual process with relatively low efficiency. Since Oct4 is central to the reprogramming process (35, 36, 38), it was hypothesized that compounds that activate Oct4 transcription may facilitate iPSC generation by enhancing reprogramming efficiency. Reprogramming of mouse embryonic fibroblasts (MEFs) was performed with the 4F reprogramming quartet Oct4, Sox2, Klf4, and c-Myc, along with solvent control, OAC1 or its structural analogs OAC2 and OAC3. The same number of starting MEFs and the same viral stocks were used for each treatment. Two days after viral transduction, the 4F-transduced cells were seeded onto feeder cells in mouse ESC culture media, and this day was designated as day 0 (FIG. 2D). Compound treatment started on day 0 and lasted for 7 days. By counting the number of clones with ESC-like morphology at day 18, both OAC1 and its analogs OAC2 and OAC3 enhanced the 4F-induced reprogramming efficiency considerably. The number of colonies with ESC-like morphology (FIG. 2E) increased 2-fold or more in 4F plus OAC (4F+OAC) treatment, compared to the 4F treatment alone (FIG. 2F, Table 3).
iPSC Derivation in Mouse ESC Media: OG2/R26MEFs were seeded onto […] at the density of 4×10^4 cells per well in DMEM medium with 10% FBS, 0.1 mM non-essential amino acids (NEAA), and 0.1 mM L-glutamine, 24 hr before transduction. Freshly concentrated viruses of the four factors, Oct4, Sox2, c-Myc, and Klf4, were added to the cells. Two days after viral infection, the viral-transduced OG2/R26MEFs were split into new 6-well plates with irradiated MEF feeder cells and cultured in mouse ESC culture medium containing 15% ESC qualified FBS, 2 mM L-glutamine, 0.1 mM 2-mercaptoethanol, 0.1 mM NEAA, 1 mM sodium pyruvate and 1000 U/ml of leukemia inhibitory factor (LIF), and this day was defined as day 0. 1 μM of each compound (OAC1, OAC2, and OAC3) was added to the 4F-transduced cells at day 0 and treatment was continued for 1 week. When iPSC colonies emerged, these colonies were picked for expansion on irradiated MEF feeders in mouse ESC medium.

OCT4 promoter = assay: Bisulfite genomic sequencing of OCT4 promoter in IMR90 fibroblasts; format: cell-based, human; conditions: IMR90 fibroblasts treated for two days
Description: To uncover the mechanism of OAC 1-mediated improvement of reprogramming efficiency, it was tested whether OAC 1 functions through regulation of DNA methylation status on the endogenous Oct4 promoter. Human IMR90 fibroblast cells were treated with OAC1 or vehicle control for two days.
Bisulfite Genomic Sequencing: Genomic DNA was isolated from human IMR90 fibroblasts, MEFs, mouse ESCs, 4F+OAC1 and 4F+OAC2-iPSCs by digestion with proteinase K, followed by phenolchloroform extraction and ethanol precipitation. Bisulfite conversion of genomic DNAs was carried out using the EZ DNA Methylation-Gold kit (Zymo Research) according to manufacturer's instruction. The bisulfite-modified DNA was then used as a template for PCR to amplify the promoter regions of Oct4 and Nanog using PCR primers for human OCT4 (1), mouse Oct4 (52) and Nanog (2). The amplified products were cloned into the pCR2.1-TOPO cloning vector (Invitrogen), and 10 randomly selected clones were sequenced with T7 or M13R primers.

human Nanog promoter = assay: Nanog-luc luciferase reporter assay (stably transfected CV1 cells); format: cell-based
Description: Oct4, Sox2, and Nanog form a positive regulatory loop to regulate the expression of each other, and Nanog is considered a downstream target gene of Oct4 and Sox2 (37). Therefore, activation of Nanog promoter was used as a validation assay for the identified compounds. Specifically, the Oct4 promoter-activating compounds were tested to ascertain whether they activate a human
Nanog promoter-driven luciferase reporter gene using in triplicate luciferase reporter assays.
Then the promoter sequences were cloned into pGL4.4-luc-Hyg vector (Promega) to get Oct4-luc or Nanog-luc construct and the fidelity of the Oct4 and Nanog promoter DNA sequences was confirmed by bi-directional sequencing. CV 1 cells were transfected with the Oct4-luc or Nanog-luc constructs and the stably-transfected cells were selected by hygromycine resistance.
Luciferase Reporter Assays: The Oct4-luc or Nanog-luc cells were treated with compound OAC 1 or its structural analogs at 1 μM concentration or at indicated concentrations in triplicates. Other compounds used include 2 μM BIO, 2 μM BIX, 2 μM
AzaC, 25 μg/ml Vc, 10 nM Am580, 5 μM tranylcypromine, and 0.5 mM VPA. Luciferase reporter assays were performed as described (51) 24 hr after compound treatment or at indicated time points. For Topflash reporter assays, 0.2 μg β-catenin-responsive Topflash reporter gene plasmid was introduced into CV1 cells using trasfection (Bio-Rad). Compounds were added 6 hr after transfection. Luciferase activity was measured 48 hr after compound treatment using the Glo Luciferase Assay System (Promega).

Chain of luciferase (P08659 whole entry): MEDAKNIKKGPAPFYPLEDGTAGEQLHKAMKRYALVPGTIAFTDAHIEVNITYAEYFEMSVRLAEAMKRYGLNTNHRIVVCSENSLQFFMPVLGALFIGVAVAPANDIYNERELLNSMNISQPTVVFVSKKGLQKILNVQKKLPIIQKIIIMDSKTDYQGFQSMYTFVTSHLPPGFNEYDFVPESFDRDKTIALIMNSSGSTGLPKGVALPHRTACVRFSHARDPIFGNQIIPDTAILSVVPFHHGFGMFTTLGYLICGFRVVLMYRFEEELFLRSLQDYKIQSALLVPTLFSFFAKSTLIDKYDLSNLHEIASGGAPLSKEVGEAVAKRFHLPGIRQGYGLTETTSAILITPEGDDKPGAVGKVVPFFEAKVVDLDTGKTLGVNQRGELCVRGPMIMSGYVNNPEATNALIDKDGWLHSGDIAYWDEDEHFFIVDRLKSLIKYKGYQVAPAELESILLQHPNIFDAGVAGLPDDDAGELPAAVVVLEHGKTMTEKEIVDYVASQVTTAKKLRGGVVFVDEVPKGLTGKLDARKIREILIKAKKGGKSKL

## O=C(Nc1cc2cc[nH]c2cn1)c1ccccc1 [OAC1, N-(1H-6-azaindol-5-yl)benzamide]
[1]; IMR90, 4F+compound, day 0 = transduction, 4F+vehicle day 11
  day at which human ESC-like colonies appeared: 9 days
[1]; IMR90, day 18, versus 4F
  increase in the number of human ESC-like colonies: more than two
luciferase
  EC50: 6.37 µM
[2]; 4F+OAC
  advance of the appearance of putative iPSC colonies compared to 4F only reprogramming: about three to four
[2]; MEFs in mouse ESC media, OSKM, seeding 3 × 10^4, day 18, 1 μM compound
  Colony numbers: 130
[2]; MEFs in mouse ESC media, OSKM, seeding 3 × 10^4, day 18, colony numbers divided by seeding cell numbers
  Reprogramming efficiency: 0.43%
OCT4 promoter
  OCT4 promoter methylation status versus DMSO: no significant difference
Human Nanog promoter; 50 nM
  activation of Nanog-luc at 50 nM: substantial activation
Human Nanog promoter; Chlorocebus aethiops, CV-1, compound at 1 μM, Nanog-luc cells, triplicates
  fold induction at 1 µM: 4.5
Human Nanog promoter; OAC1 1 μM, BIO 2 μM, BIX 2 μM, AzaC 2 μM, Vc 25 μg/ml, Am580 10 nM, tranylcypromine 5 μM, VPA 0.5 mM, two days
  induction of Nanog-luc, comparison with known reprogramming enhancers (in words): potent induction
Human Nanog promoter; triplicate luciferase reporter assays
  activation of human Nanog reporter (in words): considerable activation
